Measurements reported in patent US7438931B2, “Methods and compositions for the treatment of angiogenic diseases” (The Regents of The University of Michigan, priority 1998, dated 2008).
Several values for one entry are separate records, joined by “and”; a condition that tells them apart may be missing. Identical values can stand only once.

Experiments:
[1] = system: mouse sarcoma, MCA205, and a mouse melanoma, B16B16; test: Mouse tumor model, injected tumor cells in C57B1/6J mice; format: in vivo
Protocol: Under these guidelines, anti-angiogenesis therapeutic studies were conducted using TM in a mouse tumor model. This study involved subcutaneous or intramuscular injection of tumor cells into young adult C57B1/6J mice. Two tumors were used, a mouse sarcoma, MCA205, and a mouse melanoma, B16B16. The MCA 205 tumor cell suspension was injected subcutaneously into C57B16 mice. After the tumors were palpable, copper deficiency was induced by use of TM in half the animals, using Cp levels to monitor copper status. The other half were sham treated. Tumor growth was compared between the untreated control group and mice treated with sufficient TM to reduce Cp to about 10% of normal controls.

[2] = system: SUM149 breast cancer cells; test: Nude mice with orthotopically injected SUM149 cells; format: in vivo
Source text: In this study, the ability of tetrathiomolybdate (TM) to abrogate or retard the growth of tumors in the mammary pads of nude mice after orthotropic injection of human breast cancer cells was studied. The highly angiogenic inflammatory breast cancer cell line called SUM149 was selected for this study. Given its high propensity to form palpable tumors within 2 weeks of injection into the mammary of 80-100% of the nude mice injected, this cell line posed a stringent test of the ability of TM to impair tumor progression.
Three groups of 5 nude mice each were set up in separate cages. Groups 2 and 3 received TM in the drinking water to average an intake of 1.2 mg/day/mouse, starting at day −7. Groups 1, 2, and 3 were injected on day 0 with 10^6 SUM149 breast cancer cells in the second thoracic mammary fat pad. On day 34, as no palpable tumors were noticeable in any of the mice in the treatment groups, TM was skipped on groups 2 and 3, and then TM was restarted on group 2 at a dose of 0.6 mg/day/mouse, while TM was resumed at full dose (1.2 mg/mouse/day) in group 3.
The developing tumors were measured approximately twice weekly, and the average of the product of the bi-dimensional perpendicular diameters for each group versus time is plotted in FIG. 3. The tumors in the control group grew relatively rapidly and all animals developed tumors. […] This dose decreases copper to approximately 10-20% of baseline levels. It is this degree of copper deficiency, well tolerated in both mice and humans, which appears to be required to inhibit tumor angiogenesis.

copper metabolism = test: Open label study of TM for initial treatment of Wilson's disease patients; format: in vivo, human
Source text: The inventors have carried out an open label study of the use of TM for initial treatment of neurologically presenting Wilson's disease patients for the past several years. The inventors have developed both a spectrophotometric and bioassay for the activity of the drug, to evaluate stability, and assure potency of the drug being administered (Brewer et al., 1991a; Brewer et al., 1994b). The drug slowly loses potency when exposed to air.
The inventors have now treated a total of 51 Wilson's disease patients with TM, all of whom presented with neurological or psychiatric disease, in an open label study. These patients were all diagnosed by standard criteria. […] Some of them were treated briefly with other agents prior to this trial. Two patients had psychiatric but not neurological symptoms.
With three exceptions in the earliest part of the study, all patients received a dose of 20 mg tid with meals, or qid with three meals and a snack. Thus, the only difference between a patient receiving 120 mg and 140 mg total dose is that the former was receiving 20 mg tid, or 60 mg, with meals, and the latter was receiving 20 mg qid, or 80 mg with meals plus a snack. The rest of the total daily dose was divided up into three equal doses and given between meals.
TM impacts quickly and favorably on copper metabolism, reducing the potentially toxic copper of the blood and theoretically, the rest of the body. The primary clinical objective is to gain control over copper toxicity while not allowing clinical worsening. In other words, the prime objective is to protect all neurological function that is present at the time therapy is started. This was evaluated weekly by quantitative neurological and speech exams. Methodology and the neurology rating scale system have been published (Young et al., 1986). During the weeks of TM administration, during which copper metabolism is being controlled, neurological function as evaluated by quantitative neurological exam, is protected.

[3] = for eight weeks; cited from earlier work
[4] = among the seven anemia patients

Protocol for mammary tumors: The time of onset of tumors and the quality and quantity of tumor vessels between the treatment and control groups were compared.
The percentage of disease-free mice in the untreated control group was compared to a group of the same transgenic mice treated with 0.5-1.0 mg TM by gavage daily, starting at 100 days of age.

tetrathiomolybdate [TM]
tumor growth ([1]; TM sufficient to reduce Cp to about 10% of normal, 16 days of observation): Tumor growth was slowed by the treatment, although not halted
tumor weight normalized to total weight of the animal ([1]; TM-treated vs control mice): weighed significantly less than the tumors in control mice
palpable tumors ([2]; 1.2 mg/day/mouse in drinking water from day −7): no tumors were palpable until TM was skipped on day 34
tumor growth after TM skipped on day 34 ([2]; TM restarted at ½ dose (0.6 mg/day/mouse)): the tumors grew more rapidly
tumor growth after TM skipped on day 34 ([2]; TM resumed at full dose 1.2 mg/day/mouse): only very small tumors have grown
copper level ([2]; full dose 1.2 mg/day/mouse): 10-20 % of baseline levels
decrease of copper levels ([2]; ½ dose of TM (0.6 mg/day/mouse)): 50%
cases of reversible anemia (copper metabolism; 45 patients treated eight weeks with TM as initial therapy): 11.1%
patients with reduction in platelet count (copper metabolism; [4]): Three
patients with reduction in white blood cell count (copper metabolism; [4]): four
patients with overtreatment (copper metabolism; dose of 180 mg/day or over): 6 of 37
patients with overtreatment (copper metabolism; dose of 150 or lower): 1 of 13
time to close the plasma copper-molybdenum gap (free copper reduced to zero) (copper metabolism; first patient, tid with meals 7 days, then also tid between meals): 16 days
patients with elevation of transaminase values (serum AST and ALT) (copper metabolism; human, in vivo): four
patients with reversible anemia/bone marrow depression (copper metabolism; human, in vivo): seven
quantitative speech exam scores (copper metabolism; initial 8 weeks of TM therapy): No patient shows significant (more than 2.0 units) reduction in scores
TCA soluble fraction of plasma copper (copper metabolism; late stages of TM therapy, starting value 27): 15 µg/dL
fall in hemoglobin, average (copper metabolism; patients with anemia): 3.4 g %
patients with neurological worsening (change of more than 5 units) (copper metabolism; weeks of TM administration, quantitative neurological exam): 4 % of the sample
development of clinically overt tumors (mammary tumors; 0.5-1.0 mg TM by gavage daily from 100 days of age, median follow-up of 260 days): none of the TM-treated mice developed clinically overt tumors
maximum tolerated dose (MTD) (mammary tumors; adult mice (average weight 32 grams), prolonged treatment): 1.0 mg/day
outcome at higher doses (mammary tumors; animals who received 1.25-1.5 mg): died after 1-3 weeks of therapy
shrinkage of well established mammary tumors (mammary tumors; control animals treated after tumors >1.5 cm, 2 of 3 cases): 25% and 50%
anemia (mammary tumors; copper (Cp) decreased to below 40% of baseline): no anemia observed
toxicity (mammary tumors; copper levels decreased to 10% of baseline): no clinically overt toxicity
time to clinically overt mammary tumors after release from treatment (mammary tumors; cross-over group, previously disease-free): ≤ 18 days
vascularization of micro-tumors in mammary glands (mammary tumors; microscopic analyses of TM-treated mice): none of the micro-tumors of the treated mice were vascularized
ceruloplasmin (Cp) (mammary tumors; treatment group): below 40 % of baseline
potency retained in gelatin capsules [3]: at least 90%
